Experimental data taken from US10266520B2, “Bisamidinium-based inhibitors for the treatment of myotonic dystrophy” (The Board of Trustees of the University of Illinois, priority 2014, dated 2019).

Target: MBNL1-(CUG)16 complex
Assay: EMSA inhibition of the MBNL1-(CUG)16 complex
Type: biochemical
Conditions: EMSA; KI=IC50×KD/[protein]total; read-out: KI, apparent inhibition constant, MBNL1-(CUG)16 complex
Method: FIG. 1A-B. Determination of inhibition constants, KI, by EMSA. (a) Representative gels showing the release of (CUG)16 at different ligand concentrations. Top band is the MBNL1-(CUG)16 complex, the bottom band is the free (CUG)16. (b) IC50 values were obtained by plotting the RNA fraction bound versus ligand concentrations. The apparent inhibition constant (KI) was calculated using the equation: KI=IC50×KD/[protein]total, where KD is the dissociation constant of the MBNL1-RNA complex and [protein] is at least 7-fold greater than the KD. Error bars represent standard deviation of three independent experiments.
An electrophoretic mobility shift assay (EMSA) was employed to determine the in vitro inhibition of MBNL1-rCUG^exp complex by monomer 1a and dimers 2a-b (FIG. 1). This study used (CUG)16, which can form a hairpin structure containing a maximum of 8 U-U mismatches. […] Likely, a 1:1 complex was formed. In this study, a truncated MBNL1 (1-272 amino acids) containing four zinc finger motifs of MBNL1 and a hexahistidine tag (C-terminus) was employed. This MBNL1 construct and the full-length MBNL1 have the similar affinities to rCUG repeats.
To determine the inhibition constant of bivalent ligands 2a and 2b, the MBNL1-(CUG)16 mixture, in which ca. 50% of the RNA is free, was incubated with various concentrations of ligand (FIG. 1a). The dimer concentrations were not raised to higher than 10 μM due to the aggregation on the gel at high concentrations. As the concentration of ligand increased, more RNA was released from the complex with MBNL protein. By fitting the plot of bound RNA fractions versus ligand concentrations with an appropriate equation, the IC50 value was determined (FIG. 1b).
(CUG)16 RNA was labeled with [γ-^32P]-ATP using T4 poly-nucleotide kinase (New England Biolabs). Labeled RNA was purified by phenol extraction and ethanol precipitation. Labeled RNA was heated at 95° C. for 5 min, then placed on ice for 10 min and diluted in protein binding buffer (175 mM NaCl, 5 mM MgCl2, 20 mM Tris-HCl (pH 8), 1.25 mM 2-mercapto-ethanol (BME), 12.5% glycerol, 2 mg/ml bovine serum albumin (BSA), 0.1 mg/ml heparin, 0.05% or 0.1% Triton X). For MBNL1-(CUG)16 binding study, MBNL1 was serially diluted by a factor of 3 in protein binding buffer. To each solution was added labeled RNA, so that the final concentration of RNA was 0.2 nM. The resulting mixtures were incubated at room temperature for 10 min and loaded onto a 6% polyacrylamide gel (80:1) at 4° C. The gel was run for 2 h at 180 V in Tris-Borate 0.5× buffer (pH 8.2-8.3). Gels were dried at 80° C. under high vacuum for 2 h, developed overnight in phosphor exposure cassette, and visualized on a Molecular Dynamics Storm PhosphorImager. The KD (1:1 stoichiometry assumption) was obtained by fitting the normalized fraction RNA bound versus the concentration of protein using the equation: Fraction RNA bound=Bmax×[MBNL1]total^h/(KD^h+MBNL1]total^h) where Bmax is maximum fraction RNA bound, h is a Hill slope. Protein concentration in reaction mixture was larger than 10-fold excess over RNA concentration. Data is illustrated in FIGS. 6 and 7.

**Q.** Which Ki does the source give for `N=C(NCCCCNc1nc(N)nc(N)n1)c1ccc(C(=N)NCCCCNc2nc(N)nc(NCCCn3cc(CCNc4nc(N)nc(NCCCCNC(=N)c5ccc(C(=N)NCCCCNc6nc(N)nc(N)n6)cc5)n4)nn3)n2)cc1` [Compound 2b] here?
**A.** 36 ± 12 nM
